Results taken from publication PMC11124822, “Discovery and Anticancer Screening of Novel Oxindole-Based Derivative Bearing Pyridyl Group as Potent and Selective Dual FLT3/CDK2 Kinase Inhibitor” (Pharmaceuticals, 2024).
Like-named read-outs stand apart in the source and are kept apart here.

What was measured:
Experiment in all cases: NCI-60 antiproliferative screen (SRB)
OVCAR-4 = conditions: Homo sapiens, OVCAR-4, 48 h, read-out: Growth inhibition (%)
ACHN = type: cell-based, human; conditions: 48 h
COLO 205 = type: cell-based, human; conditions: 48 h
IGROV1 = type: cell-based, human; conditions: five-dose, 48 h, IGROV1
SK-OV-3 = type: cell-based, human; conditions: 48 h
CCRF-CEM = type: cell-based, human; conditions: 48 h
SR = conditions: Homo sapiens, 48 h, read-out: Growth inhibition (%)
RXF 393 = type: cell-based, human; conditions: 48 h
SK-MEL-28 = type: cell-based, human
RPMI-8226 = type: cell-based, human; conditions: 48 h
SF-268 = type: cell-based, human; conditions: 48 h
OVCAR-5 = type: cell-based, human; conditions: 48 h
M14 = type: cell-based, human; conditions: 48 h
SK-MEL-5 = type: cell-based, human
UO-31 = type: cell-based, human; conditions: five-dose, 48 h, UO-31
HOP-92 = type: cell-based, human; conditions: 48 h
A498 = type: cell-based, human; conditions: 48 h
HOP-62 = type: cell-based, human; conditions: 48 h
NCI-H522 = type: cell-based, human; conditions: 48 h
KM12 = type: cell-based, human; conditions: 48 h
NCI/ADR-RES = type: cell-based, human; conditions: 48 h
EKVX = type: cell-based, human; conditions: 48 h
MDA-MB-231 = type: cell-based, human; conditions: 48 h
UACC-257 = type: cell-based, human; conditions: 48 h
TK-10 = type: cell-based, human; conditions: 48 h
MCF7 = type: cell-based, human; conditions: 48 h
T-47D = type: cell-based, human; conditions: 48 h
UACC-62 = type: cell-based, human; conditions: 48 h
NCI-H460 = type: cell-based, human; conditions: 48 h
SNB-19 = type: cell-based, human; conditions: 48 h

O=C1Nc2cc(Cl)ccc2C1=Cc1ccc(OCc2cccnc2)cc1 (mixture of isomers) [Compound 5l, (E/Z)-6-Chloro-3-[4-(pyridin-3-ylmethoxy)benzylidene] indolin-2-one]
inhibition at 10 µM (OVCAR-4): 68.4% | inhibition at 10 µM (ACHN; Homo sapiens, 10 µM single dose, ACHN (Renal), read-out: Growth inhibition (%)): 55.1% | GI50 (ACHN; Homo sapiens, five-dose, ACHN): 10.8 µM | TGI (ACHN; five-dose, ACHN): 75.30 µM | inhibition at 10 µM (COLO 205; Homo sapiens, 10 µM single dose, COLO 205 (Colon), read-out: Growth inhibition (%)): 96.4% | GI50 (COLO 205; Homo sapiens, five-dose, COLO 205): 9.62 µM | TGI (COLO 205; five-dose, COLO 205): >100 µM | GI50 (IGROV1; Homo sapiens, IGROV-1): 10.7 µM | CC50 (IGROV1; Homo sapiens, IGROV-1, read-out: LC50 (the source's name)): > 100 µM | TGI (IGROV1): 3.32 µM | inhibition at 10 µM (SK-OV-3; Homo sapiens, 10 µM single dose, SK-OV-3 (Ovarian), read-out: Growth inhibition (%)): 32.2% | GI50 (SK-OV-3; Homo sapiens, five-dose, SK-OV-3): 71.8 µM | CC50 (SK-OV-3; Homo sapiens, five-dose, SK-OV-3, read-out: LC50 (the source's name)): > 100 µM | TGI (SK-OV-3; five-dose, SK-OV-3): >100 µM | inhibition at 10 µM (CCRF-CEM; Homo sapiens, 10 µM single dose, CCRF-CEM (Leukemia), read-out: Growth inhibition (%)): 83.9% | GI50 (CCRF-CEM; Homo sapiens, five-dose, CCRF-CEM): 3.72 µM | TGI (CCRF-CEM; five-dose, CCRF-CEM): >100 µM | inhibition at 10 µM (SR): 84.2% | GI50 (RXF 393; Homo sapiens, RXF 393, five-dose, RXF393): 9.07 µM | CC50 (RXF 393; Homo sapiens, RXF 393, five-dose, RXF393, read-out: LC50 (the source's name)): > 100 µM | inhibition at 10 µM (RXF 393; Homo sapiens, 10 µM single dose, RXF 393 (Renal), read-out: Growth inhibition (%)): 63.4% | TGI (RXF 393; five-dose, RXF393): 90.20 µM | CC50 (SK-MEL-28; Homo sapiens, SK-MEL-28, 48 h, five-dose, SK-MEL-28, read-out: LC50 (the source's name)): 71.5 µM | inhibition at 10 µM (SK-MEL-28; Homo sapiens, 10 µM single dose, 48 h, SK-MEL-28 (Melanoma), read-out: Growth inhibition (%)): 46.3% | GI50 (SK-MEL-28; Homo sapiens, five-dose, 48 h, SK-MEL-28): 12.3 µM | TGI (SK-MEL-28; five-dose, 48 h, SK-MEL-28): 28.50 µM | CC50 (SK-MEL-28; five-dose, 48 h, SK-MEL-28, read-out: LC50 (the source's name)): 65.6 µM | inhibition at 10 µM (RPMI-8226; Homo sapiens, 10 µM single dose, RPMI-8226 (Leukemia), read-out: Growth inhibition (%)): 95.5% | GI50 (RPMI-8226; Homo sapiens, five-dose, RPMI-8226): 3.09 µM | CC50 (RPMI-8226; Homo sapiens, five-dose, RPMI-8226, read-out: LC50 (the source's name)): > 100 µM | TGI (RPMI-8226; five-dose, RPMI-8226): >100 µM | inhibition at 10 µM (SF-268; Homo sapiens, 10 µM single dose, SF-268 (CNS), read-out: Growth inhibition (%)): 45.4% | GI50 (SF-268; Homo sapiens, five-dose, SF-268): 10.8 µM | CC50 (SF-268; Homo sapiens, five-dose, SF-268, read-out: LC50 (the source's name)): > 100 µM | TGI (SF-268; five-dose, SF-268): 88.10 µM | inhibition at 10 µM (OVCAR-5; Homo sapiens, 10 µM single dose, OVCAR-5 (Ovarian), read-out: Growth inhibition (%)): 21.7% | GI50 (OVCAR-5; Homo sapiens, five-dose, OVCAR-5): 25 µM | TGI (OVCAR-5; five-dose, OVCAR-5): >100 µM | inhibition at 10 µM (M14; Homo sapiens, 10 µM single dose, M14 (Melanoma), read-out: Growth inhibition (%)): 77.1% | GI50 (M14; Homo sapiens, five-dose, M14): 29 µM | TGI (M14; five-dose, M14): >100 µM | CC50 (SK-MEL-5; Homo sapiens, SK-MEL-5, 48 h, five-dose, SK-MEL-5, read-out: LC50 (the source's name)): 65.6 µM | inhibition at 10 µM (SK-MEL-5; Homo sapiens, 10 µM single dose, 48 h, SK-MEL-5 (Melanoma), read-out: Growth inhibition (%)): 153% | GI50 (SK-MEL-5; Homo sapiens, five-dose, 48 h, SK-MEL-5): 3.46 µM | CC50 (SK-MEL-5; five-dose, 48 h, SK-MEL-5, read-out: LC50 (the source's name)): 71.5 µM | GI50 (UO-31; Homo sapiens): 2.7 µM | CC50 (UO-31; Homo sapiens, read-out: LC50 (the source's name)): > 100 µM | TGI (UO-31): >100 µM | inhibition at 10 µM (HOP-92; Homo sapiens, 10 µM single dose, HOP-92 (NSCLC), read-out: Growth inhibition (%)): 56.1% | GI50 (HOP-92; Homo sapiens, five-dose, HOP-92): 6.51 µM | TGI (HOP-92; five-dose, HOP-92): 62.70 µM | inhibition at 10 µM (A498; Homo sapiens, 10 µM single dose, A498 (Renal), read-out: Growth inhibition (%)): 8.9% | GI50 (A498; Homo sapiens, five-dose, A498): 18 µM | CC50 (A498; Homo sapiens, five-dose, A498, read-out: LC50 (the source's name)): > 100 µM | TGI (A498; five-dose, A498): 85.20 µM | inhibition at 10 µM (HOP-62; Homo sapiens, 10 µM single dose, HOP-62 (NSCLC), read-out: Growth inhibition (%)): 72.9% | GI50 (HOP-62; Homo sapiens, five-dose, HOP-62): 12.9 µM | CC50 (HOP-62; Homo sapiens, five-dose, HOP-62, read-out: LC50 (the source's name)): > 100 µM | TGI (HOP-62; five-dose, HOP-62): >100 µM | inhibition at 10 µM (NCI-H522; Homo sapiens, 10 µM single dose, NCI-H522 (NSCLC), read-out: Growth inhibition (%)): 104% | GI50 (NCI-H522; Homo sapiens, five-dose, NCI-H522): 12.3 µM | TGI (NCI-H522; five-dose, NCI-H522): 82.20 µM | inhibition at 10 µM (KM12; Homo sapiens, 10 µM single dose, KM12 (Colon), read-out: Growth inhibition (%)): 99.7% | GI50 (KM12; Homo sapiens, five-dose, KM12): 5.3 µM | TGI (KM12; five-dose, KM12): >100 µM | inhibition at 10 µM (NCI/ADR-RES; Homo sapiens, 10 µM single dose, NCI/ADR-RES (Ovarian), read-out: Growth inhibition (%)): 112% | GI50 (NCI/ADR-RES; Homo sapiens, five-dose, NCI/ADR-RES): 3.45 µM | TGI (NCI/ADR-RES; five-dose, NCI/ADR-RES): 23.60 µM | inhibition at 10 µM (EKVX; Homo sapiens, 10 µM single dose, EKVX (NSCLC), read-out: Growth inhibition (%)): 60.9% | GI50 (EKVX; Homo sapiens, five-dose, EKVX): 6.02 µM | TGI (EKVX; five-dose, EKVX): >100 µM | inhibition at 10 µM (MDA-MB-231; Homo sapiens, 10 µM single dose, MDA-MB-231 (Breast), read-out: Growth inhibition (%)): 67.5% | GI50 (MDA-MB-231; Homo sapiens, five-dose, MDA-MB-231/ATCC): 15.8 µM | CC50 (MDA-MB-231; Homo sapiens, five-dose, MDA-MB-231/ATCC, read-out: LC50 (the source's name)): > 100 µM | TGI (MDA-MB-231; five-dose, MDA-MB-231/ATCC): >100 µM | inhibition at 10 µM (UACC-257; Homo sapiens, 10 µM single dose, UACC-257 (Melanoma), read-out: Growth inhibition (%)): 76.7% | GI50 (UACC-257; Homo sapiens, five-dose, UACC-257): 8.06 µM | CC50 (UACC-257; Homo sapiens, five-dose, UACC-257, read-out: LC50 (the source's name)): > 100 µM | TGI (UACC-257; five-dose, UACC-257): 43.80 µM | inhibition at 10 µM (TK-10; Homo sapiens, 10 µM single dose, TK-10 (Renal), read-out: Growth inhibition (%)): 29.4% | GI50 (TK-10; Homo sapiens, five-dose, TK-10): 77.1 µM | CC50 (TK-10; Homo sapiens, five-dose, TK-10, read-out: LC50 (the source's name)): > 100 µM | TGI (TK-10; five-dose, TK-10): >100 µM | inhibition at 10 µM (MCF7; Homo sapiens, 10 µM single dose, MCF7 (Breast), read-out: Growth inhibition (%)): 90.5% | GI50 (MCF7; Homo sapiens, five-dose, MCF7): 2.9 µM | CC50 (MCF7; Homo sapiens, five-dose, MCF7, read-out: LC50 (the source's name)): > 100 µM | TGI (MCF7; five-dose, MCF7): 30.90 µM | inhibition at 10 µM (T-47D; Homo sapiens, T47D, 10 µM single dose, T-47D (Breast), read-out: Growth inhibition (%)): 69% | GI50 (T-47D; Homo sapiens, T47D, five-dose, T-47D): 3.18 µM | CC50 (T-47D; Homo sapiens, T47D, five-dose, T-47D, read-out: LC50 (the source's name)): > 100 µM | TGI (T-47D; five-dose, T-47D): >100 µM | inhibition at 10 µM (UACC-62; Homo sapiens, 10 µM single dose, UACC-62 (Melanoma), read-out: Growth inhibition (%)): 64.3% | GI50 (UACC-62; Homo sapiens, five-dose, UACC-62): 7.7 µM | TGI (UACC-62; five-dose, UACC-62): 43.50 µM | inhibition at 10 µM (NCI-H460; Homo sapiens, 10 µM single dose, NCI-H460 (NSCLC), read-out: Growth inhibition (%)): 77.7% | GI50 (NCI-H460; Homo sapiens, five-dose, NCI-H460): 14 µM | CC50 (NCI-H460; Homo sapiens, five-dose, NCI-H460, read-out: LC50 (the source's name)): > 100 µM | TGI (NCI-H460; five-dose, NCI-H460): >100 µM | inhibition at 10 µM (SNB-19; Homo sapiens, 10 µM single dose, SNB-19 (CNS), read-out: Growth inhibition (%)): 56.2% | GI50 (SNB-19; Homo sapiens, five-dose, SNB-19): 12.4 µM | TGI (SNB-19; five-dose, SNB-19): >100 µM
